# Source: patent publication US10227312B2, “Glucosylceramide synthase inhibitors for the treatment of diseases” (BIOMARIN PHARMACEUTICAL INC., priority 2015, dated 2019)
# Key:
# [1] = system: K562 cells; assay: K562 Cell-Based Assay; conditions: Homo sapiens, NBD-Ceramide, LCMS, read-out: Assay 2 (Cellular Assay; K562 cells) IC50
# Method: This assay was modified based on the study by Gupta et al. (J. Lipid Res. 2010, 51, 866). K562 cells were seeded into 12-well plates at 3×10^5 cells/well/mL in RPMI-1640 medium with 5% FBS and incubated at 37° C. for 24 h. One μL of a compound described herein at desired concentration (10 mM, 1 mM, 0.1 mM, 0.01 mM, 0.001 mM and 0.0001 mM in DMSO) or DMSO was added into the corresponding well and mixed. Cells were incubated at 37° C. for 4 h. Then 100 μL of RPMI-1640 medium containing 110 μM of NBD-Ceramide, 11% BSA, 5% FBS, and corresponding concentration of a compound described herein was added into each well and mixed. Cells were incubated for additional 0.5 h at 37° C., followed by washing the cells with ice-cold PBS (pH 7.4) twice with centrifugation and resuspended with 50 μL cold PBS+1% Triton X-100. The cell lysate was sonicated for 15 min before adding equal volume of methanol for LCMS analysis. A small aliquot of cell lysate was used to determine protein concentration by BCA assay kit. The HPLC equipment and methods used in Assay 1 were used in this assay as well and IC50's were calculated.
# [2] = molecular target: glucosylceramide synthase (GCS) (Canis lupus familiaris, UniProt A0A8I3MXG6); assay: GCS Enzymatic Assay (MDCK lysates); type: biochemical, canine; conditions: MDCK cell lysate, C6-NBD-Ceramide, 37° C. for 1 hour, LC/MS; read-out: Assay 1 (Enzyme Assay; MDCK lysates) IC50
# Chain of glucosylceramide synthase (GCS) (A0A8I3MXG6 1-394): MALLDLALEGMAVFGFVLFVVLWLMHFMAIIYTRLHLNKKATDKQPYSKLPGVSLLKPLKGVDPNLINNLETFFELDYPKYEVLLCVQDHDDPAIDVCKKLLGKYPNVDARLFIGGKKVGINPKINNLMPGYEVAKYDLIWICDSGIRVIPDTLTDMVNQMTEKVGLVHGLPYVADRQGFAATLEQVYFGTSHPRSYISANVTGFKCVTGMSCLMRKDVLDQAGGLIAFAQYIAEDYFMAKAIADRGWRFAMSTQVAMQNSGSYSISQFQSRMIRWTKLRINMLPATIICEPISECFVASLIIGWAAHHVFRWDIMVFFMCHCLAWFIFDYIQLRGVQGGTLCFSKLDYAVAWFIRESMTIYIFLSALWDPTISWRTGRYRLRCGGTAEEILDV
# Method: Madin-Darby canine kidney (MDCK) cell lysate was prepared using M-PER Mammalian Protein Extraction Reagent (Thermal Scientific) in the presence of a protease inhibitor cocktail (Roche). Protein concentration was determined using BCA assay kit (Pierce). […] 0.1% DMSO was used as mock treatment or control. The reaction was terminated by adding 100 μL acetonitrile solution and subjected to LC/MS analysis.
# The quantitative analysis of NBD-Ceramide and glucosylceramide was performed on a Shimadzu ultra-fast liquid chromatography (Shimadzu, Japan) coupled with API 4000 triple quadrupole mass spectrometer (Applied Biosystems, Concord, Ontario, Canada). Sample separation was conducted on a Waters Xbridge™ BEH130 C18, 100 mm×4.6 mm i.d, 3.5 μm (Milford, Mass., USA). The mobile phase consisted of water and acetonitrile supplemented with 0.1% formic acid (v/v). The flow rate was 1.0 mL/min. The initial mobile phase was 20% acetonitrile and was ramped in a linear fashion to 50% acetonitrile in 0.4 min. From 0.4 to 1.5 min, the gradient was ramped to 98% acetonitrile, and then was held at […] until 8.0 min. Acetonitrile was reset to 20% in 1.5 min, and maintained until 10.0 min. The total run time was 10.0 min. The MS/MS detection was performed in ESI positive mode. […] The cell lysate was diluted with equal volume of acetonitrile. Aliquots of 50 μL diluted samples were added to 1.5 mL tubes, and 100 μL of acetonitrile containing internal standard (100 ng/mL tolbutamide) were added for protein precipitation. The mixture were vortexed and then centrifuged at 13000 rpm for 10 min. 70 μL of supernatant were mixed with 140 μL of H2O and the final solution were injected for LC/MS/MS analysis and IC50's and/or percent inhibitions calculated.
IC50 [1] [nM],IC50 [2] [nM],SMILES
≤ 10,< 10,"O=C(N[C@H](CN1CCCC1)[C@H](O)c1ccc(OC2CC2)cc1)C1=NOCc2cc(-c3ccc(Cl)s3)ccc21 [Example 14, 7-(5-chlorothiophen-2-yl)-N-((1R,2R)-1-(4-cyclopropoxyphenyl)-1-hydroxy-3-(pyrrolidin-1-yl)propan-2-yl)-1H-benzo[d][1,2]oxazine-4-carboxamide]"
≤ 10,< 10,"CN(C(=O)C1=NOCc2cc(-c3ccc(F)cc3)ccc21)[C@H](CN1CCCC1)[C@H](O)c1ccc(OC2CC2)c(F)c1 [Example 17, N-((1R,2R)-1-(4-cyclopropoxy-3-fluorophenyl)-1-hydroxy-3-(pyrrolidin-1-yl)propan-2-yl)-7-(4-fluorophenyl)-N-methyl-1H-benzo[d][1,2]oxazine-4-carboxamide]"
≤ 10,10 to 100,"CN(C(=O)C1=NOCc2cc(-c3ccc(Cl)s3)ccc21)[C@H](CN1CCCC1)[C@H](O)c1ccc(OC2CC2)c(F)c1 [Example 18, 7-(5-chlorothiophen-2-yl)-N-((1R,2R)-1-(4-cyclopropoxy-3-fluorophenyl)-1-hydroxy-3-(pyrrolidin-1-yl)propan-2-yl)-N-methyl-1H-benzo[d][1,2]oxazine-4-carboxamide]"
≤ 10,10 to 100,"CN(C(=O)C1=NOCc2cc(-c3ccc(F)cc3)ccc21)[C@H](CN1CCCC1)[C@H](O)c1ccc(OC2CC2)c(Cl)c1 [Example 19, N-((1R,2R)-1-(3-chloro-4-cyclopropoxyphenyl)-1-hydroxy-3-(pyrrolidin-1-yl)propan-2-yl)-7-(4-fluorophenyl)-N-methyl-1H-benzo[d][1,2]oxazine-4-carboxamide]"
≤ 10,< 10,"O=C(N[C@H](CN1CCCC1)[C@H](O)c1ccc(OC2CC2)c(Cl)c1)C1=NOCc2cc3ccccc3cc21 [Example 20, N-((1R,2R)-1-(3-chloro-4-cyclopropoxyphenyl)-1-hydroxy-3-(pyrrolidin-1-yl)propan-2-yl)-1H-naphtho[2,3-d][1,2]oxazine-4-carboxamide]"
≤ 10,10 to 100,"CN(C(=O)C1=NOCc2cc(-c3ccc(F)cc3)ccc21)[C@H](CN1CCC1)[C@H](O)c1ccc(OC2CC2)c(Cl)c1 [Example 21, N-((1R,2R)-3-(azetidin-1-yl)-1-(3-chloro-4-cyclopropoxyphenyl)-1-hydroxypropan-2-yl)-7-(4-fluorophenyl)-N-methyl-1H-benzo[d][1,2]oxazine-4-carboxamide]"
≤ 10,< 10,"O=C(N[C@H](CN1CCCC1)[C@H](O)c1ccc(OC2CC2)c(Cl)c1)C1=NOCc2c1ccc1ccccc21 [Example 22, N-((1R,2R)-1-(3-chloro-4-cyclopropoxyphenyl)-1-hydroxy-3-(pyrrolidin-1-yl)propan-2-yl)-1H-naphtho[2,1-d][1,2]oxazine-4-carboxamide]"
10 to 100,10 to 100,"CC1ON=C(C(=O)N[C@H](CN2CCCC2)[C@H](O)c2ccc(OC3CC3)c(Cl)c2)c2ccc(-c3ccc(F)cc3)cc21 (stereo partly drawn) [Example 24, N-((1R,2R)-1-(3-chloro-4-cyclopropoxyphenyl)-1-hydroxy-3-(pyrrolidin-1-yl)propan-2-yl)-7-(4-fluorophenyl)-1-methyl-1H-benzo[d][1,2]oxazine-4-carboxamide]"
≤ 10,< 10,"O=C(N[C@H](CN1CCCC1)[C@H](O)c1ccc(OC2CC2)cc1)C1=NOCc2c1ccc1ccccc21 [Example 25, N-((1R,2R)-1-(4-cyclopropoxyphenyl)-1-hydroxy-3-(pyrrolidin-1-yl)propan-2-yl)-1H-naphtho[2,1-d][1,2]oxazine-4-carboxamide]"
≤ 10,< 10,"O=C(N[C@H](CN1CCC1)[C@H](O)c1ccc(OC2CC2)c(Cl)c1)C1=NOCc2c1ccc1ccccc21 [Example 26, N-((1R,2R)-3-(azetidin-1-yl)-1-(3-chloro-4-cyclopropoxyphenyl)-1-hydroxypropan-2-yl)-1H-naphtho[2,1-d][1,2]oxazine-4-carboxamide]"
10 to 100,< 10,"O=C(N[C@H](CN1CCCC1)[C@H](O)c1ccc(OC2CC2)c(Cl)c1)C1=NOCc2c1ccc1cccnc21 [Example 27, N-((1R,2R)-1-(3-chloro-4-cyclopropoxyphenyl)-1-hydroxy-3-(pyrrolidin-1-yl)propan-2-yl)-10H-[1,2]oxazino[4,5-h]quinoline-7-carboxamide]"
≤ 10,< 10,"O=C(N[C@H](CN1CCCC1)[C@H](O)c1ccc(OC2CC2)c(Cl)c1)C1=NOCc2c1ccc1cc(F)ccc21 [Example 28, N-((1R,2R)-1-(3-chloro-4-cyclopropoxyphenyl)-1-hydroxy-3-(pyrrolidin-1-yl)propan-2-yl)-8-fluoro-1H-naphtho[2,1-d][1,2]oxazine-4-carboxamide]"
≤ 10,< 10,"O=C(N[C@H](CN1CCCC1)[C@H](O)c1ccc(OC2CC2)cc1)C1=NOCc2c1ccc1cc(F)ccc21 [Example 29, N-((1R,2R)-1-(4-cyclopropoxyphenyl)-1-hydroxy-3-(pyrrolidin-1-yl)propan-2-yl)-8-fluoro-1H-naphtho[2,1-d][1,2]oxazine-4-carboxamide]"
10 to 100,< 10,"O=C(N[C@H](CN1CCC1)[C@H](O)c1ccc(OC2CC2)c(Cl)c1)C1=NOCc2c1ccc1cc(F)ccc21 [Example 30, N-((1R,2R)-3-(azetidin-1-yl)-1-(3-chloro-4-cyclopropoxyphenyl)-1-hydroxypropan-2-yl)-8-fluoro-1H-naphtho[2,1-d][1,2]oxazine-4-carboxamide]"
10 to 100,10 to 100,"O=C(N[C@H](CN1CCC1)[C@H](O)c1ccc(OC2CC2)cc1)C1=NOCc2c1ccc1cc(F)ccc21 [Example 31, N-((1R,2R)-3-(azetidin-1-yl)-1-(4-cyclopropoxyphenyl)-1-hydroxypropan-2-yl)-8-fluoro-1H-naphtho[2,1-d][1,2]oxazine-4-carboxamide]"
≤ 10,< 10,"O=C(N[C@H](CN1CCCC1)[C@H](O)c1ccc(OC2CC2)c(Cl)c1)C1=NOCc2c1ccc1sc(Cl)cc21 [Example 32, 8-chloro-N-((1R,2R)-1-(3-chloro-4-cyclopropoxyphenyl)-1-hydroxy-3-(pyrrolidin-1-yl)propan-2-yl)-1H-thieno[3′,2′:3,4]benzo[1,2-d][1,2]oxazine-4-carboxamide]"
10 to 100,< 10,"Cn1ncc2c3c(ccc21)C(C(=O)N[C@H](CN1CCCC1)[C@H](O)c1ccc(OC2CC2)c(Cl)c1)=NOC3 [Example 33, N-((1R,2R)-1-(3-chloro-4-cyclopropoxyphenyl)-1-hydroxy-3-(pyrrolidin-1-yl)propan-2-yl)-7-methyl-1,7-dihydro-[1,2]oxazino[5,4-e]indazole-4-carboxamide]"
10 to 100,< 10,"Cn1ncc2ccc3c(c21)CON=C3C(=O)N[C@H](CN1CCCC1)[C@H](O)c1ccc(OC2CC2)c(Cl)c1 [Example 34, N-((1R,2R)-1-(3-chloro-4-cyclopropoxyphenyl)-1-hydroxy-3-(pyrrolidin-1-yl)propan-2-yl)-1-methyl-1,9-dihydro-[1,2]oxazino[4,5-g]indazole-6-carboxamide]"
